Test system: LXRα and/or LXRβ
Test: LXR/LXRE co-transfection assay (luciferase reporter, CV-1 cells)
Format: cell-based, human
Details: IC50 or EC50 for LXR (LXRα and/or LXRβ, not distinguished), tested as described in Example 109, CV-1 cells
In short: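 Luciferase readout after 20 h compound exposure at 37 °C in CV-1 cells transiently expressing human LXRα or LXRβ with RXRα and an LXRE-driven reporter. Dose-response over 8 points at ½-log spacing, 4 wells each, fitted for EC50/IC50; values average ≥3 independent experiments, efficacy as % of high control.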

| EC50 | Molecule |
| --- | --- |
| < 1000 nM | CS(=O)(=O)c1cccc(-c2ccc(-c3cc(C(O)(C(F)(F)F)C(F)(F)F)nn3-c3ccccc3Cl)s2)c1 [Example 1164, 2-[1-(2-chlorophenyl)-5-{5-[3-(methylsulfonyl)phenyl]-2-thienyl}-1H-pyrazol-3-yl]-1,1,1,3,3,3-hexafluoropropan-2-ol] |
| < 1000 nM | Cc1cc(-c2cccc(S(C)(=O)=O)c2)ccc1-n1nc(C(C)(C)O)c(Cl)c1-c1c(F)cccc1Cl [Example 149, 2-(4-chloro-5-(2-chloro-6-fluorophenyl)-1-(3-methyl-3′-(methylsulfonyl)biphenyl-4-yl)-1H-pyrazol-3-yl)propan-2-ol] |
| < 1000 nM | CCN(Cc1ccncc1)Cc1cc(-c2ccc(-c3cccc(S(C)(=O)=O)c3)s2)n(-c2ccccc2Cl)n1 [Example 485, N-{[1-(2-chlorophenyl)-5-{5-[3-(methylsulfonyl)phenyl]-2-thienyl}-1H-pyrazol-3-yl]methyl}-N-(pyridin-4-ylmethyl)ethanamine] |
| 1000 to 10000 nM | CC(C)(C(=O)O)c1cccc(-c2ccc(-c3cc(C(F)(F)F)nn3-c3ncccc3C(F)(F)F)s2)c1 [Example 1165, 2-methyl-2-[3-(5-{3-(trifluoromethyl)-1-[3-(trifluoromethyl)pyridin-2-yl]-1H-pyrazol-5-yl}-2-thienyl)phenyl]propanoic acid] |
| < 1000 nM | CS(=O)(=O)c1cccc(-c2ccc(-c3cc(C(=O)NCC(F)(F)F)nn3-c3cccnc3C(F)(F)F)c(Cl)c2)c1 [Example 1401, 5-(3-chloro-3′-(methylsulfonyl)biphenyl-4-yl)-N-(2,2,2-trifluoroethyl)-1-(2-(trifluoromethyl)pyridin-3-yl)-1H-pyrazole-3-carboxamide] |
| > 10000 nM | 2-[1-(2-chlorophenyl)-5-{5-[3-(methylsulfonyl)phenyl]pyridin-2-yl}-1H-pyrazol-3-yl]propan-2-ol [Example 79] |
| < 1000 nM | CC(C)(O)c1nn(-c2ccccc2Cl)c(-c2ccc(-c3cccc(S(C)(=O)=O)c3)s2)c1Br [Example 1278, 2-[4-bromo-1-(2-chlorophenyl)-5-{5-[3-(methylsulfonyl)phenyl]-2-thienyl}-1H-pyrazol-3-yl]propan-2-ol] |
| < 1000 nM | CS(=O)(=O)c1cccc(-c2ccc(-n3nc(C(O)(C(F)(F)F)C(F)(F)F)cc3-c3ccccc3Cl)cc2)c1 [Example 1225, 2-{5-(2-chlorophenyl)-1-[3′-(methylsulfonyl)biphenyl-4-yl]-1H-pyrazol-3-yl}-1,1,1,3,3,3-hexafluoropropan-2-ol] |
| 1000 to 10000 nM | CCN(CC)C(=O)COc1cccc(-c2ccc(-c3cc(C(C)(C)O)nn3-c3ccccc3Cl)cc2)c1 [Example 1298, 2-({4′-[1-(2-chlorophenyl)-3-(1-hydroxy-1-methylethyl)-1H-pyrazol-5-yl]biphenyl-3-yl}oxy)-N,N-diethylacetamide] |
| < 1000 nM | CS(=O)(=O)c1cccc(-c2ccc(-c3cc(C(F)(F)F)nn3CCN3CCOCC3)cc2)c1 [Example 1222, 4-(2-{5-[3′-(methylsulfonyl)phenyl-4-yl]-3-(trifluoromethyl)-1H-pyrazol-1-yl}ethyl)morpholine] |
| < 1000 nM | COC(=O)c1cc(-c2ccccc2Cl)n(-c2ccc(-c3cccc(S(C)(=O)=O)c3)cc2)n1 [Example 1218, methyl 5-(2-chlorophenyl)-1-[3′-(methylsulfonyl)biphenyl-4-yl]-1H-pyrazole-3-carboxylate] |
| 1000 to 10000 nM | CC(C)(O)c1cc(-c2ccc(-c3cccc(S(C)(=O)=O)c3)s2)n(-c2ccc(Cl)c(Cl)c2)n1 [Example 1324, 2-[1-(3,4-dichlorophenyl)-5-{5-[3-(methylsulfonyl)phenyl]-2-thienyl}-1H-pyrazol-3-yl]propan-2-ol] |
| < 1000 nM | CCCc1ccccc1-n1nc(C(C)(C)O)cc1-c1ccc(-c2cccc(S(C)(=O)=O)c2)s1 [Example 1330, 2-[5-{5-[3-(methylsulfonyl)phenyl]-2-thienyl}-1-(2-propylphenyl)-1H-pyrazol-3-yl]propan-2-ol] |
| < 1000 nM | COC(=O)c1cccc(-n2nc(C(F)(F)F)cc2-c2ccc(-c3cccc(S(C)(=O)=O)c3)s2)c1 [Example 1186, methyl 3-[5-{5-[3-(methylsulfonyl)phenyl]-2-thienyl}-3-(trifluoromethyl)-1H-pyrazol-1-yl]benzoate] |
| < 1000 nM | Cc1cc(-c2cccc(S(C)(=O)=O)c2)ccc1-n1nc(C(C)(C)O)cc1-c1c(Cl)cccc1Cl [Example 122, 2-(5-(2,6-dichlorophenyl)-1-(3-methyl-3′-(methylsulfonyl)biphenyl-4-yl)-1H-pyrazol-3-yl)propan-2-ol] |
| 1000 to 10000 nM | CC(C)(O)c1nn(-c2ccccc2Cl)c(-c2ccc(-c3cccc(S(C)(=O)=O)c3)nc2)c1Cl [Example 132, 2-(4-chloro-1-(2-chlorophenyl)-5-(6-(3-(methylsulfonyl)phenyl)pyridin-3-yl)-1H-pyrazol-3-yl)propan-2-ol] |

| EC50 | Molecule |
| --- | --- |
| < 1000 nM | CCc1ccccc1-n1nc(C(C)(C)O)c(Br)c1-c1ccc(-c2cccc(S(C)(=O)=O)c2)s1 [Example 1358, 2-[4-bromo-1-(2-ethylphenyl)-5-{5-[3-(methylsulfonyl)phenyl]-2-thienyl}-1H-pyrazol-3-yl]propan-2-ol] |
| 1000 to 10000 nM | O=C(NC1CCSC1=O)c1ccc(-c2cc(C(F)(F)F)nn2-c2ccccc2Cl)cc1 (stereo not drawn) [Example 1355, 4-[1-(2-chlorophenyl)-3-(trifluoromethyl)-1H-pyrazol-5-yl]-N-(2-oxotetrahydro-3-thienyl)benzamide] |
| 1000 to 10000 nM | CC(C)(O)c1cc(-c2cccc(F)c2F)n(-c2ccc(-c3cccc(S(C)(=O)=O)c3)cc2F)n1 [Example 121, 2-(5-(2,3-difluorophenyl)-1-(3-fluoro-3′-(methylsulfonyl)biphenyl-4-yl)-1H-pyrazol-3-yl)propan-2-ol] |
| < 1000 nM | COC(F)(F)c1cc(-c2ccc(-c3cccc(S(C)(=O)=O)c3)s2)n(-c2ccccc2C(F)(F)F)n1 [Example 1211, 3-[difluoro(methyloxy)methyl]-5-{5-[3-(methylsulfonyl)phenyl]-2-thienyl}-1-[2-(trifluoromethyl)phenyl]-1H-pyrazole] |
| < 1000 nM | CC(C)(O)c1cc(-c2ccc(-c3cccc(S(C)(=O)=O)c3)cc2)n(-c2ccccc2C(F)(F)F)n1 [Example 1201, 2-{5-[3′-(methylsulfonyl)biphenyl-4-yl]-1-[2-(trifluoromethyl)phenyl]-1H-pyrazol-3-yl}propan-2-ol] |
| < 1000 nM | CC(C)(O)c1cc(-c2ccc(-c3cccc(S(C)(=O)=O)c3)s2)n(-c2c(F)cccc2C(F)(F)F)n1 [Example 1353, 2-(1-[2-fluoro-6-(trifluoromethyl)phenyl]-5-{5-[3-(methylsulfonyl)phenyl]-2-thienyl}-1H-pyrazol-3-yl)propan-2-ol] |
| 1000 to 10000 nM | CC(C)(O)c1cc(-c2ccc(-c3cccc(S(C)(=O)=O)c3)s2)n(-c2ccncc2Cl)n1 [Example 112, 2-(1-(3-chloropyridin-4-yl)-5-(5-(3-(methylsulfonyl)phenyl)thiophen-2-yl)-1H-pyrazol-3-yl)propan-2-ol] |
| < 1000 nM | CC(C)(O)c1cc(-c2ccc(-c3cccc(S(C)(=O)=O)c3)cc2Cl)n(Cc2cccc(Cl)c2Cl)n1 [Example 1402, 2-(5-(3-chloro-3′-(methylsulfonyl)biphenyl-4-yl)-1-(2,3-dichlorobenzyl)-1H-pyrazol-3-yl)propan-2-ol] |
| < 1000 nM | CC(C)(O)c1nn(-c2cccnc2C(F)(F)F)c(-c2ccc(-c3cccc(S(C)(=O)=O)c3)cc2Cl)c1Cl [Example 1387, 2-(4-chloro-5-(3-chloro-3′-(methylsulfonyl)biphenyl-4-yl)-1-(2-(trifluoromethyl)pyridin-3-yl)-1H-pyrazol-3-yl)propan-2-ol] |
| 1000 to 10000 nM | CC(C)(O)c1cc(-c2ccc(-c3ccc(S(C)(=O)=O)cc3)cc2)n(-c2ccccc2Cl)n1 [Example 1305, 2-{1-(2-chlorophenyl)-5-[4′-(methylsulfonyl)biphenyl-4-yl]-1H-pyrazol-3-yl}propan-2-ol] |
| 1000 to 10000 nM | CS(=O)(=O)CCNC(=O)c1ccc(-c2cc(C(F)(F)F)nn2-c2ccccc2Cl)cc1 [Example 1364, 4-[1-(2-chlorophenyl)-3-(trifluoromethyl)-1H-pyrazol-5-yl]-N-[2-(methylsulfonyl)ethyl]benzamide] |
| 1000 to 10000 nM | CC(C)(O)c1cc(-c2ccc(-c3cccc(S(N)(=O)=O)c3)s2)n(-c2cc(Cl)ccc2Cl)n1 [Example 1214, 3-{5-[1-(2,5-dichlorophenyl)-3-(1-hydroxy-1-methylethyl)-1H-pyrazol-5-yl]-2-thienyl}benzenesulfonamide] |
| < 1000 nM | CC(C)(O)c1cc(-c2cccc(F)c2F)n(-c2ccc(-c3cccc(S(C)(=O)=O)c3)cc2Cl)n1 [Example 131, 2-(1-(3-chloro-3′-(methylsulfonyl)biphenyl-4-yl)-5-(2,3-difluorophenyl)-1H-pyrazol-3-yl)propan-2-ol] |
| 1000 to 10000 nM | CC(C)(O)c1cc(-c2ccc(-c3cccc(S(C)(=O)=O)c3)s2)n(-c2ncccc2F)n1 [Example 1272, 2-[1-(3-fluoropyridin-2-yl)-5-{5-[3-(methylsulfonyl)phenyl]-2-thienyl}-1H-pyrazol-3-yl]propan-2-ol] |
| < 1000 nM | CC(C)(O)c1cc(-c2ccc(-c3cccc(S(C)(=O)=O)c3)s2)n(-c2ncccc2C(F)(F)F)n1 [Example 1178, 2-(5-{5-[3-(methylsulfonyl)phenyl]-2-thienyl}-1-[3-(trifluoromethyl)pyridin-2-yl]-1H-pyrazol-3-yl)propan-2-ol] |
| < 1000 nM | CN(Cc1cc(-c2ccc(-c3cccc(S(C)(=O)=O)c3)s2)n(-c2ccccc2Cl)n1)Cc1ncco1 [Example 1147, 1-[1-(2-chlorophenyl)-5-{5-[3-(methylsulfonyl)phenyl]-2-thienyl}-1H-pyrazol-3-yl]-N-methyl-N-(1,3-oxazol-2-ylmethyl)methanamine] |

| Molecule | EC50 |
| --- | --- |
| 1-(5-(1-(2-chlorophenyl)-3-(trifluoromethyl)-1H-pyrazol-5-yl)thiophen-2-ylsulfonyl)-4-methylpiperazine [Example 69] | < 1000 nM |

From US8703805B2 (Exelixis Patent Company LLC, priority 2005, dated 2014)
